Experiments:
HCT-116 = assay: Antiproliferative activity against human HCT116 cells assessed as reduction in cell viability incubated for 48 hrs by Sulforhodamine B assay; type: functional; conditions: HCT-116, 48 h
Histone deacetylase 1 = Histone deacetylase 1 (Homo sapiens, UniProt Q13547); assay: Inhibition of recombinant human C-terminal FLAG/His-tagged HDAC1 (1 to 482 residues) expressed in Sf21 insect cells by using RHK-K(Ac)-AMC as substrate measured after 60 mins by fluorescence assay
Histone deacetylase 8 = biological target: T1, Histone deacetylase 8 (Homo sapiens, UniProt Q9BY41); assay: Inhibition of recombinant human C-terminal His-tagged HDAC8 (1 to 377 residues) expressed in insect cells using RHK-K(Ac)-AMC as substrate measured after 60 mins by fluorescence assay
T1 sequence (Q9BY41 whole entry): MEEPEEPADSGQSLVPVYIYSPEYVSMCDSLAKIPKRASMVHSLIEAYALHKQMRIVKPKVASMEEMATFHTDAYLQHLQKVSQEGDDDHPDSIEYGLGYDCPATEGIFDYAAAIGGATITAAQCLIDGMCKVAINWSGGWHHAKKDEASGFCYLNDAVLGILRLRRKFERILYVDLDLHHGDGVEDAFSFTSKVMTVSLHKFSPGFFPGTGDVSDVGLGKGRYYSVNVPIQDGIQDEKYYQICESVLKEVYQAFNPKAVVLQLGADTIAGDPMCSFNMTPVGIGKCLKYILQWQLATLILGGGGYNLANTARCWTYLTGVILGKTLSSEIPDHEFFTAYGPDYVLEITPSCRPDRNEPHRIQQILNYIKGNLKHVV

[1] = biological target: Class 1 histone deacetylase (Homo sapiens) (UniProt Q13547+O15379+Q92769+Q9BY41); assay: Inhibition of class 1 HDAC in human HCT116 cells assessed as increase in H3 acetylation measured after 48 hrs by Western blot analysis; type: cell-based; conditions: HCT-116
[2] = biological target: T2, Protein deacetylase HDAC6 (Homo sapiens) (UniProt Q9UBN7); assay: Inhibition of HDAC6 in human HCT116 cells assessed as increase in tubulin acetylation measured after 48 hrs by Western blot analysis; type: cell-based; conditions: HCT-116
T2 sequence (whole entry): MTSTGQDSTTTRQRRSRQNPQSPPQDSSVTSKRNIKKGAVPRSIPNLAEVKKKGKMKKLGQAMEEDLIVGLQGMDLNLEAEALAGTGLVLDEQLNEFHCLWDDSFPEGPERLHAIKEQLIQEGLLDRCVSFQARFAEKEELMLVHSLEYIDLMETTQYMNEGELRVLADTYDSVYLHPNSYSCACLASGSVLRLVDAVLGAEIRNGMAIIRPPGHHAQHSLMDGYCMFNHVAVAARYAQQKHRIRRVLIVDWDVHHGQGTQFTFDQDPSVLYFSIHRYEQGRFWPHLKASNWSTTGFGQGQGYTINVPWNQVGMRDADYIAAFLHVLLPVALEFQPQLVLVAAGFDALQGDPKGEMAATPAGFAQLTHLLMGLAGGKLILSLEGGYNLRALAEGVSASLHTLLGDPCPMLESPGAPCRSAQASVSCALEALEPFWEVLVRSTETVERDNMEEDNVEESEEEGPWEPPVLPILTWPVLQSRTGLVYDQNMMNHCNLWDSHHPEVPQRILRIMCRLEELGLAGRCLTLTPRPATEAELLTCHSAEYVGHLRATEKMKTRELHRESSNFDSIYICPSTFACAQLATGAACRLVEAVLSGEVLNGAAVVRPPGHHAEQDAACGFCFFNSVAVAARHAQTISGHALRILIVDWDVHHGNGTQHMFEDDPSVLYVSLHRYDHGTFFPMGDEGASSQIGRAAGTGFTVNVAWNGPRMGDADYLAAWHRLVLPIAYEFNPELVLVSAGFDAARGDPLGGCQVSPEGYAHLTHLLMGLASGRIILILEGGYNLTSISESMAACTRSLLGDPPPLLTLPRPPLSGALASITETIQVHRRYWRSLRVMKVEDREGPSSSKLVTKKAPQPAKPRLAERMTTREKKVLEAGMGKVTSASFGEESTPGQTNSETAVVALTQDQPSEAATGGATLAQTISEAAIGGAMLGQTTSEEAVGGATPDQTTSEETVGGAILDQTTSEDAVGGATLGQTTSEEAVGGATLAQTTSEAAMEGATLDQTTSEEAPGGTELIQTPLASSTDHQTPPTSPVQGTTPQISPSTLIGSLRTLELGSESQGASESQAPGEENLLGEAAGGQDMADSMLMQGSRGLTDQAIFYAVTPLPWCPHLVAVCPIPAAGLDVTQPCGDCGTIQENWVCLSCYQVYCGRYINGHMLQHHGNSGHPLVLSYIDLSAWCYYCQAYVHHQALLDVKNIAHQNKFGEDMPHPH

[3] = biological target: T3, Protein deacetylase HDAC6 (Homo sapiens, UniProt Q9UBN7); assay: Inhibition of human HDAC6 using fluorogenic-(RHKKAc) as substrate by fluorescence assay
T3 sequence (Q9UBN7 whole entry): T2 sequence (whole entry)

A549 = assay: Antiproliferative activity against human A549 cells assessed as reduction in cell viability incubated for 48 hrs by Sulforhodamine B assay; type: functional; conditions: A549, 48 h
Homo sapiens [4] = species: Homo sapiens; assay: Selectivity ratio of IC50 for recombinant human C-terminal GST-tagged HDAC2 (1 to 488 residues) expressed in insect cells to IC50 of human HDAC6
Homo sapiens [5] = species: Homo sapiens; assay: Selectivity ratio of IC50 for recombinant human C-terminal His-tagged HDAC8 (1 to 377 residues) expressed in insect cells to IC50 of human HDAC6
Histone deacetylase 2 = Histone deacetylase 2 (Homo sapiens, UniProt Q92769); assay: Inhibition of recombinant human C-terminal GST-tagged HDAC2 (1 to 488 residues) expressed in insect cells using RHK-K(Ac)-AMC as substrate measured after 60 mins by fluorescence assay
Homo sapiens [6] = species: Homo sapiens; assay: Selectivity ratio of IC50 for recombinant human C-terminal FLAG/His-tagged HDAC1 (1 to 482 residues) expressed in Sf21 insect cells to IC50 of human HDAC6

Histone deacetylase 1, sequence (Q13547 whole entry, the tested form may be a part): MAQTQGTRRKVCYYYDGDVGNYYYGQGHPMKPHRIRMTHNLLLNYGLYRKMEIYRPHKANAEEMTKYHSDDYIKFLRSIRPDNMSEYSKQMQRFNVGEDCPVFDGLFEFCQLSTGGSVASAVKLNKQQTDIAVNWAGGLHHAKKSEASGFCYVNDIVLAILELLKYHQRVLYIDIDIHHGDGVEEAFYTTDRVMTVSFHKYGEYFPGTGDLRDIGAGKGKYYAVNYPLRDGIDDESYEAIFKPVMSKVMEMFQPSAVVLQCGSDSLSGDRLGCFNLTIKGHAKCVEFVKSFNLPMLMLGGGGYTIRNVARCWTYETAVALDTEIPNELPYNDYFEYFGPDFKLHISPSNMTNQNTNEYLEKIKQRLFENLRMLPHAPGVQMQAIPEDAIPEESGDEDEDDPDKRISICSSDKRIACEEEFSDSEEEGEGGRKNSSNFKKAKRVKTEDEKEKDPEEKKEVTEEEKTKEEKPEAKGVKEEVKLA
Histone deacetylase 2, sequence (Q92769 whole entry, the tested form may be a part): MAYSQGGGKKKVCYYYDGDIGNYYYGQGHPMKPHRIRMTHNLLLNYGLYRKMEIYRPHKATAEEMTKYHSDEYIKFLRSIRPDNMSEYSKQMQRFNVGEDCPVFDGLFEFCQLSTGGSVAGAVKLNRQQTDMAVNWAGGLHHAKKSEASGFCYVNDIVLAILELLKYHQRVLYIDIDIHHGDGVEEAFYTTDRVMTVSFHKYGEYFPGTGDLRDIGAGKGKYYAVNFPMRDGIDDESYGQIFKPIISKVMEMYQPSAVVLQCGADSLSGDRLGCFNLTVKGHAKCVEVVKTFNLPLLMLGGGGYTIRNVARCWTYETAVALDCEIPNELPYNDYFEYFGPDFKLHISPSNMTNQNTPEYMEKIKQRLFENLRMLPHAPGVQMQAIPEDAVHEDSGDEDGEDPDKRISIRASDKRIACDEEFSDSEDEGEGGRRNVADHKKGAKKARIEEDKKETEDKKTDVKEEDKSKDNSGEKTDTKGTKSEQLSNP

Question: Which results are given for `COc1ccc(-c2ccc3nc(/C=C/C(=O)NO)ccc3c2)cc1`?
Answer: GI50 (HCT-116): 1470 nM; IC50 (Histone deacetylase 1; sf21): Not Active; IC50 (Histone deacetylase 8): 4770 nM; inhibition [1]: Dose-dependent effect; inhibition [2]: Dose-dependent effect; IC50 [3]: 49 nM; GI50 (A549): 2350 nM; Ratio IC50 (Homo sapiens [4]): 27; Ratio IC50 (Homo sapiens [5]): 97; IC50 (Histone deacetylase 2; read-out: IC50): 1310 nM

Question: How did the GI50 (HCT-116) turn out when `COc1ccc(S(=O)(=O)Nc2ccc3nc(/C=C/C(=O)NO)ccc3c2)cc1` was run?
Answer: 6680 nM

Question: And the GI50 (A549)?
Answer: 4310 nM

Question: Which results are given for `O=C(/C=C/c1ccc2cc(C(=O)c3ccc(F)cc3)ccc2n1)NO`?
Answer: GI50 (HCT-116): 1840 nM; GI50 (A549): 1260 nM

Question: Which results are given for `Cc1ccc(C(=O)c2ccc3nc(/C=C/C(=O)NO)ccc3c2)cc1`?
Answer: GI50 (HCT-116): 2510 nM; GI50 (A549): 2580 nM

Question: With `COc1ccc(C(=O)c2ccc3nc(/C=C/C(=O)NO)ccc3c2)cc1` as the molecule, how does the GI50 (HCT-116) read?
Answer: 2300 nM

Question: What about the GI50 (A549) of the same molecule?
Answer: 1890 nM

Question: `O=C(/C=C/c1ccc2cc(-c3ccoc3)ccc2n1)NO` was tested. Which GI50 (HCT-116) did it give?
Answer: 1560 nM

Question: And the GI50 (A549)?
Answer: 1920 nM

Question: `COc1cc(C(=O)c2ccc3nc(/C=C/C(=O)NO)ccc3c2)cc(OC)c1OC` was tested. Which GI50 (HCT-116) did it give?
Answer: 2620 nM

Question: And the GI50 (A549)?
Answer: 3350 nM

Question: How did the GI50 (HCT-116) turn out when `O=C(CCCCCCC(=O)Nc1ccccc1)NO` [VORINOSTAT] was run?
Answer: 440 nM

Question: And the GI50 (A549)?
Answer: 2620 nM

Question: Which GI50 (HCT-116) does the source give for `O=C(/C=C/c1ccc2cc(Oc3ccc([N+](=O)[O-])cc3)ccc2n1)NO` here?
Answer: 1000 nM

Question: And the IC50 (Histone deacetylase 1; read-out: IC50)?
Answer: 6050 nM

Question: What about the IC50 (Histone deacetylase 8) of the same molecule?
Answer: 2320 nM

Question: And the inhibition [1]?
Answer: Dose-dependent effect

Question: What about the inhibition [2] of the same molecule?
Answer: Dose-dependent effect

Question: And the IC50 [3]?
Answer: 51.4 nM

Question: What about the Ratio IC50 (Homo sapiens [6]) of the same molecule?
Answer: 118

Question: And the GI50 (A549)?
Answer: 1630 nM

Question: What about the Ratio IC50 (Homo sapiens [5]) of the same molecule?
Answer: 45

Question: And the IC50 (Histone deacetylase 2)?
Answer: Not Active

Question: What does the source list for `COc1ccc(C(=O)c2ccc3nc(/C=C/C(=O)NO)ccc3c2)cc1OC`?
Answer: GI50 (HCT-116): 1780 nM; GI50 (A549): 3310 nM

Question: What does the source list for `COc1cc(Oc2ccc3nc(/C=C/C(=O)NO)ccc3c2)cc(OC)c1OC`?
Answer: GI50 (HCT-116): 740 nM; IC50 (Histone deacetylase 1; read-out: IC50): 1770 nM; IC50 (Histone deacetylase 8): 2820 nM; inhibition [1]: Dose-dependent effect; inhibition [2]: Dose-dependent effect; IC50 [3]: 26.5 nM; Ratio IC50 (Homo sapiens [6]): 67; GI50 (A549): 2430 nM; Ratio IC50 (Homo sapiens [4]): 0.7; Ratio IC50 (Homo sapiens [5]): 106; IC50 (Histone deacetylase 2; read-out: IC50): 18.7 nM

Question: `CC(C)c1ccc(Oc2ccc3nc(/C=C/C(=O)NO)ccc3c2)cc1` was tested. Which GI50 (HCT-116) did it give?
Answer: 4080 nM

Question: And the GI50 (A549)?
Answer: 3280 nM

Question: How did the GI50 (HCT-116) turn out when `COc1cccc(Oc2ccc3nc(/C=C/C(=O)NO)ccc3c2)c1` was run?
Answer: 2740 nM

Question: What about the GI50 (A549) of the same molecule?
Answer: 4350 nM

Question: For `CN1CCc2c(c3ccccc3n2Cc2ccc(C(=O)NO)cc2)C1` [TUBASTATIN A], which GI50 (HCT-116) is on record?
Answer: > 5000 nM

Question: What about the GI50 (A549) of the same molecule?
Answer: > 5000 nM

Question: With `COc1ccc(Oc2ccc3nc(/C=C/C(=O)NO)ccc3c2)cc1` as the molecule, how does the GI50 (HCT-116) read?
Answer: 1820 nM

Question: What about the IC50 (Histone deacetylase 1; read-out: IC50) of the same molecule?
Answer: > 10000 nM

Question: What about the IC50 (Histone deacetylase 8) of the same molecule?
Answer: 7750 nM

Question: What about the inhibition [1] of the same molecule?
Answer: Dose-dependent effect

Question: What about the inhibition [2] of the same molecule?
Answer: Dose-dependent effect

Question: And the IC50 [3]?
Answer: 20.7 nM

Question: And the Ratio IC50 (Homo sapiens [6])?
Answer: > 483

Question: What about the GI50 (A549) of the same molecule?
Answer: 3200 nM

Question: What about the Ratio IC50 (Homo sapiens [5]) of the same molecule?
Answer: 374

Question: And the IC50 (Histone deacetylase 2)?
Answer: Not Active

Source: ChEMBL document CHEMBL4610053, “Synthesis and biological evaluation of 2-quinolineacrylamides” (Bioorg Med Chem, 2020)
